Assay results taken from patent US20210255193A1, “LYSINE REACTIVE PROBES AND USES THEREOF” (The Scripps Research Institute, priority 2017, published 2021).

Legend:
Assay in all cases: competitive isoTOP-ABPP
Type in all cases: binding
[1] = target: T1, CUL2 Cullin-2 (Homo sapiens, UniProt Q13617); conditions: for isoTOP-ABPP reactivity ratio at lysine Q13617_K489 / isoTOP-ABPP ratio (R) at liganded lysine Q13617_K489: 50 uM, in vitro; for isoTOP-ABPP reactivity ratio at lysine Q13617_K489: 231 sol; for isoTOP-ABPP ratio (R) at liganded lysine Q13617_K489: sol, 231; for isoTOP-ABPP ratio, lysine Q13617_K489: 50 uM_231_sol_in vitro
T1 construct: isoTOP-ABPP experiments performed in cell lysates (in vitro); endogenous in cells; host or cells: soluble proteome of human cancer cell lines (MDA-MB-231, Ramos, Jurkat)
In short: (§1)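 Cell lysate (0.5 ml) was pre-treated with fragment, 50 μM for activated esters or 100 μM for guanidinylating agents, versus DMSO, then labeled 1 h at ambient temperature with 0.1 mM STP-alkyne. Light/heavy TEV tags attached by CuAAC; R = DMSO/compound MS1 peak-area ratio, median per lysine.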

[2] = target: T2, ENOPH1 Enolase-phosphatase E1 (Homo sapiens, UniProt Q9UHY7); conditions: for isoTOP-ABPP reactivity ratio at lysine Q9UHY7_K111 / isoTOP-ABPP ratio (R) at liganded lysine Q9UHY7_K111: 50 uM, in vitro; for isoTOP-ABPP reactivity ratio at lysine Q9UHY7_K111: 231 sol; for isoTOP-ABPP ratio (R) at liganded lysine Q9UHY7_K111: sol, 231; for isoTOP-ABPP ratio, lysine Q9UHY7_K111: 50 uM_231_sol_in vitro
T2 construct: endogenous in cells; host or cells: MDA-MB-231 (soluble fraction of lysate)
In short: as §1

[3] = target: T3, ERAP1 Endoplasmic reticulum aminopeptidase 1 (Homo sapiens, UniProt Q9NZ08); conditions: for isoTOP-ABPP reactivity ratio at lysine Q9NZ08_K685 / isoTOP-ABPP ratio (R) at liganded lysine Q9NZ08_K685: 50 uM, in vitro; for isoTOP-ABPP reactivity ratio at lysine Q9NZ08_K685: 231 sol; for isoTOP-ABPP ratio (R) at liganded lysine Q9NZ08_K685: sol, 231; for isoTOP-ABPP ratio, lysine Q9NZ08_K685: 50 uM_231_sol_in vitro
T3 construct: endogenous in cells; host or cells: MDA-MB-231 lysate
In short: as §1

[4] = target: T4, GSTT2B Glutathione S-transferase theta-2B (Homo sapiens, UniProt P0CG30); conditions: for isoTOP-ABPP reactivity ratio at lysine P0CG30_K53 / isoTOP-ABPP ratio (R) at liganded lysine P0CG30_K53: 50 uM, in vitro; for isoTOP-ABPP reactivity ratio at lysine P0CG30_K53: 231 sol; for isoTOP-ABPP ratio (R) at liganded lysine P0CG30_K53: sol, 231; for isoTOP-ABPP ratio, lysine P0CG30_K53: 50 uM_231_sol_in vitro
T4 construct: isoTOP-ABPP experiments performed in cell lysates (in vitro); endogenous in cells; host or cells: MDA-MB-231 soluble lysate
T4 sequence (P0CG30 1-244): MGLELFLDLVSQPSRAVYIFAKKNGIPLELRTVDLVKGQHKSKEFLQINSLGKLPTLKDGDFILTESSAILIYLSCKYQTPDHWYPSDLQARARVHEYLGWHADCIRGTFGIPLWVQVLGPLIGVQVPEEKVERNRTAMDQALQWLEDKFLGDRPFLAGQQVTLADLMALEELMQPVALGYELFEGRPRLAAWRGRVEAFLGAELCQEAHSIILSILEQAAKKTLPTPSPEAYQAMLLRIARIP
In short: as §1

[5] = target: T5, KIAA1967 DBIRD complex subunit KIAA1967 (Homo sapiens, UniProt Q8N163); conditions: for isoTOP-ABPP reactivity ratio at lysine Q8N163_K97 / isoTOP-ABPP reactivity ratio at lysine Q8N163_K112 / isoTOP-ABPP ratio (R) at liganded lysine Q8N163_K97 / isoTOP-ABPP ratio (R) at liganded lysine Q8N163_K112: 50 uM, in vitro; for isoTOP-ABPP reactivity ratio at lysine Q8N163_K97 / isoTOP-ABPP reactivity ratio at lysine Q8N163_K112: 231 sol; for isoTOP-ABPP ratio (R) at liganded lysine Q8N163_K97 / isoTOP-ABPP ratio (R) at liganded lysine Q8N163_K112: sol, 231; for isoTOP-ABPP ratio, lysine Q8N163_K97 / isoTOP-ABPP ratio, lysine Q8N163_K112: 50 uM_231_sol_in vitro
T5 construct: isoTOP-ABPP experiments performed in cell lysates (in vitro); endogenous in cells; host or cells: soluble proteome of human cancer cell lines (MDA-MB-231; Ramos and Jurkat also prepared)
In short: as §1

[6] = target: T6, MTOR Serine/threonine-protein kinase mTOR (Homo sapiens, UniProt P42345); conditions: for isoTOP-ABPP reactivity ratio at lysine P42345_K2066 / isoTOP-ABPP ratio (R) at liganded lysine P42345_K2066: 50 uM, in vitro; for isoTOP-ABPP reactivity ratio at lysine P42345_K2066: 231 sol; for isoTOP-ABPP ratio (R) at liganded lysine P42345_K2066: sol, 231; for isoTOP-ABPP ratio, lysine P42345_K2066: 50 uM_231_sol_in vitro
T6 construct: isoTOP-ABPP experiments performed in cell lysates (in vitro); endogenous in cells; host or cells: soluble proteome of human cancer cell lines (MDA-MB-231; Ramos and Jurkat also prepared)
In short: as §1

T1 sequence (Q13617 whole entry): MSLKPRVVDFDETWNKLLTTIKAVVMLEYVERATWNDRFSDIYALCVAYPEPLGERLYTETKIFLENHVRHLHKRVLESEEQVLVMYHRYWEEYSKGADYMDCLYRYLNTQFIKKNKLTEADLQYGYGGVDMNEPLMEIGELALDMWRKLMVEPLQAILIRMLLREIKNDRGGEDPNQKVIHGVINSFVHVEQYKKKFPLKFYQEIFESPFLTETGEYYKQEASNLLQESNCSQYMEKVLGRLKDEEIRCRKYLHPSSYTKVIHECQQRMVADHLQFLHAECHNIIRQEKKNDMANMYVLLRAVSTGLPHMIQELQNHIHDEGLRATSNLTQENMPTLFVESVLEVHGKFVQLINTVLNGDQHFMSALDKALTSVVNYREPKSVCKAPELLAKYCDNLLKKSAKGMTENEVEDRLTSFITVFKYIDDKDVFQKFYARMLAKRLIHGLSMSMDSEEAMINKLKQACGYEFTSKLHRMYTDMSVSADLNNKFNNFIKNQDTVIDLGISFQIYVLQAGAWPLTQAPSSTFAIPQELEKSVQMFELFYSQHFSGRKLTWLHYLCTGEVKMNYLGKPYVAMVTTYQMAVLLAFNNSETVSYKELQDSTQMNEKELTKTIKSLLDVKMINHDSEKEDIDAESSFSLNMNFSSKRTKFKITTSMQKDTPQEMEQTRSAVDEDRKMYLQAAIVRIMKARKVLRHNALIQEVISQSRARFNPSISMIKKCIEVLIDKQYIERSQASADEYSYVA
T3 sequence (Q9NZ08 whole entry): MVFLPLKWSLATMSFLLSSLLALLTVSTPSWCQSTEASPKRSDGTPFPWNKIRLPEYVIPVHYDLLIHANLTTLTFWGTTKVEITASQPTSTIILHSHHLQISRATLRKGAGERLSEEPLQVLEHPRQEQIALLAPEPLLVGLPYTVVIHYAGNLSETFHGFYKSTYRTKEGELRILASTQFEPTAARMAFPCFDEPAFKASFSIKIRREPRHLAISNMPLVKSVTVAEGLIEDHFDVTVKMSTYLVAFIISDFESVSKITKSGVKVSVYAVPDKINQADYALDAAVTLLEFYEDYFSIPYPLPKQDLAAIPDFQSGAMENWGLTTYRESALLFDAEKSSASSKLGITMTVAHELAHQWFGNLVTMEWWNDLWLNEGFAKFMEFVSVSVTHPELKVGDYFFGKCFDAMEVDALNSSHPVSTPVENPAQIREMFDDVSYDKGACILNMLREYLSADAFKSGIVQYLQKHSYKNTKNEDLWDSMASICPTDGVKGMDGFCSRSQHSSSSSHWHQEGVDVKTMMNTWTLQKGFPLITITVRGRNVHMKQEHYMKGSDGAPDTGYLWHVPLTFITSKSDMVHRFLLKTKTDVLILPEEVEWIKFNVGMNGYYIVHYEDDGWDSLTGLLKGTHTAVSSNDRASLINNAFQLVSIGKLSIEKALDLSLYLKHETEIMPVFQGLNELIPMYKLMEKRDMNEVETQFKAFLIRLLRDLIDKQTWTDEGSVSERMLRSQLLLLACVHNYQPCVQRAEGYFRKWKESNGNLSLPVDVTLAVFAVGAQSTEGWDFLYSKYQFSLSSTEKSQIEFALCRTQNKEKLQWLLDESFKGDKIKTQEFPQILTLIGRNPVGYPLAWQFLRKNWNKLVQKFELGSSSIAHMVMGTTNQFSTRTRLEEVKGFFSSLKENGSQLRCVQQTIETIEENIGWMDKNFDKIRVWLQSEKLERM
T5 sequence (Q8N163 whole entry, one chain of several): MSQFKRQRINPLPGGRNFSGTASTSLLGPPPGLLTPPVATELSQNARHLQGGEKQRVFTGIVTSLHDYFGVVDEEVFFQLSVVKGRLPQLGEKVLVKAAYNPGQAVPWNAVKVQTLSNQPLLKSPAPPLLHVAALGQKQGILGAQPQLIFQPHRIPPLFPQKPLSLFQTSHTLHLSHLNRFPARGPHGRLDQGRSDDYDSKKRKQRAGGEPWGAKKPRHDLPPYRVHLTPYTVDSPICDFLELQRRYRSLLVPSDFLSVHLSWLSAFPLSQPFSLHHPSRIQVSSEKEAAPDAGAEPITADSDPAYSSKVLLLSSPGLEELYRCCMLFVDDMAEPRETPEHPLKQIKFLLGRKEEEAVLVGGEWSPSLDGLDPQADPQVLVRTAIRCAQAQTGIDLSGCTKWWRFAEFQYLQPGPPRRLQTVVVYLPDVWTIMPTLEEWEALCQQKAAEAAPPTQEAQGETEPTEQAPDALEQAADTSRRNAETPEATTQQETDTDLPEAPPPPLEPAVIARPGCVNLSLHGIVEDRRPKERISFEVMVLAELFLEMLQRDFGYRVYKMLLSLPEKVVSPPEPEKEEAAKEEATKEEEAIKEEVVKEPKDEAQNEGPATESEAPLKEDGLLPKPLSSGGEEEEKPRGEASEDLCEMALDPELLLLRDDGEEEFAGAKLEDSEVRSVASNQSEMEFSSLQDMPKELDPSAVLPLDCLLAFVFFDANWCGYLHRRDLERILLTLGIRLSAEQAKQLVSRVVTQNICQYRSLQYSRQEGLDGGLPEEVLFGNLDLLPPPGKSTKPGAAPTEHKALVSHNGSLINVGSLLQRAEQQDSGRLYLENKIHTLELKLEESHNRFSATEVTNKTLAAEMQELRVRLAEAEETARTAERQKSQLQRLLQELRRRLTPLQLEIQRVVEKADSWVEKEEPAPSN
T2 sequence (Q9UHY7 whole entry): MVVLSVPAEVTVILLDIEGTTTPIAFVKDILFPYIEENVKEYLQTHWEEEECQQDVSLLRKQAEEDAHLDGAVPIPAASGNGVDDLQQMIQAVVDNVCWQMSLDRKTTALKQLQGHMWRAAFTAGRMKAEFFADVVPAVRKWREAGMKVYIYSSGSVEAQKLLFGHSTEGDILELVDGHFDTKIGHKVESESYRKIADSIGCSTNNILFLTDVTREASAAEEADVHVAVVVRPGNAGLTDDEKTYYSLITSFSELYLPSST

## CCn1cc(C(=O)Oc2c(F)c(F)c(F)c(F)c2F)c(=O)c2ccc(C)nc21 [fragment 28, Pentafluorophenyl 1-ethyl-7-methyl-4-oxo-1,4-dihydro-1,8-naphthyridine-3-carboxylate]
[1]
  isoTOP-ABPP reactivity ratio at lysine Q13617_K489: 1.0
[2]
  isoTOP-ABPP reactivity ratio at lysine Q9UHY7_K111: 1.0
[3]
  isoTOP-ABPP reactivity ratio at lysine Q9NZ08_K685: 1.4
[4]
  isoTOP-ABPP reactivity ratio at lysine P0CG30_K53: 1.0
[5]
  isoTOP-ABPP reactivity ratio at lysine Q8N163_K97: 0.9
  isoTOP-ABPP reactivity ratio at lysine Q8N163_K112: 1.1
[6]
  isoTOP-ABPP reactivity ratio at lysine P42345_K2066: 1.0

## O=C(CCc1cn(-c2ccccc2)nc1-c1ccccc1)Oc1ccc([N+](=O)[O-])cc1[N+](=O)[O-] [fragment 29, 2,4-Dinitrophenyl 3-(1,3-diphenyl-1H-pyrazol-4-yl)propanoate]
[1]
  isoTOP-ABPP reactivity ratio at lysine Q13617_K489: 1.2
[2]
  isoTOP-ABPP reactivity ratio at lysine Q9UHY7_K111: 0.8
[3]
  isoTOP-ABPP reactivity ratio at lysine Q9NZ08_K685: 1.0
[4]
  isoTOP-ABPP reactivity ratio at lysine P0CG30_K53: 0.7
[5]
  isoTOP-ABPP reactivity ratio at lysine Q8N163_K97: 0.8
  isoTOP-ABPP reactivity ratio at lysine Q8N163_K112: 1.2
[6]
  isoTOP-ABPP reactivity ratio at lysine P42345_K2066: 1.0

## O=C(Oc1ccc([N+](=O)[O-])cc1[N+](=O)[O-])C(c1ccccc1)c1ccccc1 [fragment 30, 2,4-Dinitrophenyl 2,2-diphenylacetate]
[1]
  isoTOP-ABPP reactivity ratio at lysine Q13617_K489: 1.1
[2]
  isoTOP-ABPP reactivity ratio at lysine Q9UHY7_K111: 0.8
[3]
  isoTOP-ABPP reactivity ratio at lysine Q9NZ08_K685: 1.2
[4]
  isoTOP-ABPP reactivity ratio at lysine P0CG30_K53: 0.6
[5]
  isoTOP-ABPP reactivity ratio at lysine Q8N163_K97: 1.0
  isoTOP-ABPP reactivity ratio at lysine Q8N163_K112: 1.4
[6]
  isoTOP-ABPP reactivity ratio at lysine P42345_K2066: 3.5

## Cn1cc(CC(=O)Oc2ccc([N+](=O)[O-])cc2[N+](=O)[O-])c2ccccc21 [fragment 32, 2,4-Dinitrophenyl 2-(1-methyl-1H-indol-3-yl)acetate]
[1]
  isoTOP-ABPP reactivity ratio at lysine Q13617_K489: 1.1
[2]
  isoTOP-ABPP reactivity ratio at lysine Q9UHY7_K111: 1.3
[3]
  isoTOP-ABPP reactivity ratio at lysine Q9NZ08_K685: 2.8
[4]
  isoTOP-ABPP reactivity ratio at lysine P0CG30_K53: 0.8
[5]
  isoTOP-ABPP reactivity ratio at lysine Q8N163_K97: 1.1
  isoTOP-ABPP reactivity ratio at lysine Q8N163_K112: 1.2
[6]
  isoTOP-ABPP reactivity ratio at lysine P42345_K2066: 8.0

## COc1cc(CCC(=O)Oc2ccc([N+](=O)[O-])cc2[N+](=O)[O-])cc(OC)c1OC [fragment 33, 2,4-Dinitrophenyl 3-(3,4,5-trimethoxyphenyl)propanoate]
[1]
  isoTOP-ABPP reactivity ratio at lysine Q13617_K489: 1.2
[2]
  isoTOP-ABPP reactivity ratio at lysine Q9UHY7_K111: 0.9
[3]
  isoTOP-ABPP reactivity ratio at lysine Q9NZ08_K685: 1.0
[4]
  isoTOP-ABPP reactivity ratio at lysine P0CG30_K53: 0.5
[5]
  isoTOP-ABPP reactivity ratio at lysine Q8N163_K97: 0.7
  isoTOP-ABPP reactivity ratio at lysine Q8N163_K112: 0.9
[6]
  isoTOP-ABPP reactivity ratio at lysine P42345_K2066: 1.1

## O=C(Oc1ccc([N+](=O)[O-])cc1[N+](=O)[O-])C1CCN(C(=O)OCc2ccccc2)CC1 [fragment 34, 1-Benzyl 4-(2,4-dinitrophenyl) piperidine-1,4-dicarboxylate]
[1]
  isoTOP-ABPP ratio (R) at liganded lysine Q13617_K489: 1.1
[2]
  isoTOP-ABPP ratio (R) at liganded lysine Q9UHY7_K111: 0.9
[3]
  isoTOP-ABPP ratio (R) at liganded lysine Q9NZ08_K685: 1.7
[4]
  isoTOP-ABPP ratio (R) at liganded lysine P0CG30_K53: 0.5
[5]
  isoTOP-ABPP ratio (R) at liganded lysine Q8N163_K97: 1.3
  isoTOP-ABPP ratio (R) at liganded lysine Q8N163_K112: 1.0
[6]
  isoTOP-ABPP ratio (R) at liganded lysine P42345_K2066: 1.1

## O=C(CCc1coc2cc(F)ccc2c1=O)Oc1ccc([N+](=O)[O-])cc1[N+](=O)[O-] [fragment 36, 2,4-Dinitrophenyl 3-(7-fluoro-4-oxo-4H-chromen-3-yl)propanoate]
[1]
  isoTOP-ABPP ratio (R) at liganded lysine Q13617_K489: 1.0
[2]
  isoTOP-ABPP ratio (R) at liganded lysine Q9UHY7_K111: 0.9
[3]
  isoTOP-ABPP ratio (R) at liganded lysine Q9NZ08_K685: 1.1
[4]
  isoTOP-ABPP ratio (R) at liganded lysine P0CG30_K53: 0.5
[5]
  isoTOP-ABPP ratio (R) at liganded lysine Q8N163_K97: 0.9
  isoTOP-ABPP ratio (R) at liganded lysine Q8N163_K112: 1.1
[6]
  isoTOP-ABPP ratio (R) at liganded lysine P42345_K2066: 3.0

## O=C(Oc1ccc([N+](=O)[O-])cc1[N+](=O)[O-])c1ccc(-c2ccccc2)cc1 [fragment 37, 2,4-Dinitrophenyl [1,1′-biphenyl]-4-carboxylate]
[1]
  isoTOP-ABPP ratio (R) at liganded lysine Q13617_K489: 1.0
[2]
  isoTOP-ABPP ratio (R) at liganded lysine Q9UHY7_K111: 0.9
[3]
  isoTOP-ABPP ratio (R) at liganded lysine Q9NZ08_K685: 1.0
[4]
  isoTOP-ABPP ratio (R) at liganded lysine P0CG30_K53: 0.7
[5]
  isoTOP-ABPP ratio (R) at liganded lysine Q8N163_K97: 1.0
  isoTOP-ABPP ratio (R) at liganded lysine Q8N163_K112: 1.1
[6]
  isoTOP-ABPP ratio (R) at liganded lysine P42345_K2066: 1.0

## O=C(Oc1ccc([N+](=O)[O-])cc1[N+](=O)[O-])c1ccccc1Nc1cccc(C(F)(F)F)c1 [fragment 40, 2,4-Dinitrophenyl 2-((3-(trifluoromethyl)phenyl)amino)benzoate]
[1]
  isoTOP-ABPP ratio (R) at liganded lysine Q13617_K489: 20.0
[2]
  isoTOP-ABPP ratio (R) at liganded lysine Q9UHY7_K111: 0.7
[3]
  isoTOP-ABPP ratio (R) at liganded lysine Q9NZ08_K685: 1.1
[4]
  isoTOP-ABPP ratio (R) at liganded lysine P0CG30_K53: 0.6
[5]
  isoTOP-ABPP ratio (R) at liganded lysine Q8N163_K97: 1.0
  isoTOP-ABPP ratio (R) at liganded lysine Q8N163_K112: 1.5
[6]
  isoTOP-ABPP ratio (R) at liganded lysine P42345_K2066: 0.8

## CC(=O)Oc1ccc([N+](=O)[O-])cc1[N+](=O)[O-] [fragment 43, 2,4-Dinitrophenyl acetate]
[1]
  isoTOP-ABPP ratio (R) at liganded lysine Q13617_K489: 1.2
[2]
  isoTOP-ABPP ratio (R) at liganded lysine Q9UHY7_K111: 0.9
[3]
  isoTOP-ABPP ratio (R) at liganded lysine Q9NZ08_K685: 1.1
[4]
  isoTOP-ABPP ratio (R) at liganded lysine P0CG30_K53: 0.6
[5]
  isoTOP-ABPP ratio (R) at liganded lysine Q8N163_K97: 0.9
  isoTOP-ABPP ratio (R) at liganded lysine Q8N163_K112: 1.0
[6]
  isoTOP-ABPP ratio (R) at liganded lysine P42345_K2066: 1.6

## N#Cc1ccc(C(=O)Oc2ccc([N+](=O)[O-])cc2[N+](=O)[O-])cc1 [fragment 44, 2,4-Dinitrophenyl 4-cyanobenzoate]
[1]
  isoTOP-ABPP ratio, lysine Q13617_K489: 0.8
[2]
  isoTOP-ABPP ratio, lysine Q9UHY7_K111: 0.9
[3]
  isoTOP-ABPP ratio, lysine Q9NZ08_K685: 1.6
[4]
  isoTOP-ABPP ratio, lysine P0CG30_K53: 0.6
[5]
  isoTOP-ABPP ratio, lysine Q8N163_K97: 0.8
  isoTOP-ABPP ratio, lysine Q8N163_K112: 1.0
[6]
  isoTOP-ABPP ratio, lysine P42345_K2066: 1.7

## O=C(CCc1ccc2c(c1)OCO2)Oc1ccc([N+](=O)[O-])cc1[N+](=O)[O-] [fragment 45, 2,4-Dinitrophenyl 3-(benzo[d][1,3]dioxol-5-yl)propanoate]
[1]
  isoTOP-ABPP ratio, lysine Q13617_K489: 1.2
[2]
  isoTOP-ABPP ratio, lysine Q9UHY7_K111: 1.1
[3]
  isoTOP-ABPP ratio, lysine Q9NZ08_K685: 1.3
[4]
  isoTOP-ABPP ratio, lysine P0CG30_K53: 0.5
[5]
  isoTOP-ABPP ratio, lysine Q8N163_K97: 0.8
  isoTOP-ABPP ratio, lysine Q8N163_K112: 1.2
[6]
  isoTOP-ABPP ratio, lysine P42345_K2066: 1.1
